Source: PubChem BioAssay AID248 (DTP/NCI, 2004)
Values joined by “and” are separate entries in the source; they are usually repeats but may differ in a detail not shown here. Equal entries are not always repeated. Inconclusive results and toxic doses are left out. Rule as the data show it: active = T/C of 150% or more; inactive = T/C below 125%.

System: L1210 leukemia ip in BDF1 mice, survival T/C
Test: NCI In Vivo Anticancer Drug Screen. Data for tumor model L1210 Leukemia (intraperitoneal) in B6D2F1 (BDF1) mice
Conditions: endpoint: mean survival time, higher = longer survival
Procedure, shortened: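 Tumor cells were implanted, animals were treated, and survival was followed. The result divides the treated measurement by the vehicle-control measurement.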

[1] = dose: 100.0 mg/kg/injection, schedule: Q01DX001 (ip), vehicle: saline
[2] = dose: 100.0 mg/kg/injection, schedule: Q04DX003 (ip), vehicle: Klucel (hydroxypropylcellulose) (HPC)
[3] = dose: 200.0 mg/kg/injection, schedule: Q01DX001 (ip), vehicle: saline
[4] = dose: 400.0 mg/kg/injection, schedule: Q01DX001 (ip), vehicle: saline
[5] = dose: 200.0 mg/kg/injection, schedule: Q04DX003 (ip), vehicle: Klucel (hydroxypropylcellulose) (HPC)
[6] = dose: 400.0 mg/kg/injection, schedule: Q04DX003 (ip), vehicle: Klucel (hydroxypropylcellulose) (HPC)
[7] = dose: 100.0 mg/kg/injection, schedule: Q04DX003 (ip), vehicle: saline
[8] = dose: 200.0 mg/kg/injection, schedule: Q04DX003 (ip), vehicle: saline

Measured: T/C

C=CC(=O)O
inactive: dose: 0.5 mg/kg/injection, schedule: Q01DX009 (ip), vehicle: saline 101 % of control | dose: 1.0 mg/kg/injection, schedule: Q01DX009 (ip), vehicle: saline 101 % of control | dose: 1.56 mg/kg/injection, schedule: Q01DX009 (ip), vehicle: acetone 104 % of control | dose: 2.0 mg/kg/injection, schedule: Q01DX009 (ip), vehicle: saline 108 % of control | dose: 3.12 mg/kg/injection, schedule: Q01DX009 (ip), vehicle: acetone 102 % of control | dose: 4.0 mg/kg/injection, schedule: Q01DX009 (ip), vehicle: saline 116 % of control | dose: 5.0 mg/kg/injection, schedule: Q01DX001 (ip), vehicle: saline 102 % of control and 93 % of control | dose: 6.25 mg/kg/injection, schedule: Q01DX009 (ip), vehicle: acetone 88 % of control | dose: 10.0 mg/kg/injection, schedule: Q01DX001 (ip), vehicle: saline 108 % of control and 100 % of control | dose: 20.0 mg/kg/injection, schedule: Q01DX001 (ip), vehicle: saline 101 % of control | dose: 25.0 mg/kg/injection, schedule: Q04DX003 (ip), vehicle: Klucel (hydroxypropylcellulose) (HPC) 90 % of control | dose: 50.0 mg/kg/injection, schedule: Q01DX001 (ip), vehicle: carboxymethylcellulose (CMC) 88 % of control and 106 % of control | dose: 50.0 mg/kg/injection, schedule: Q01DX001 (ip), vehicle: saline 95 % of control | dose: 100.0 mg/kg/injection, schedule: Q01DX001 (ip), vehicle: carboxymethylcellulose (CMC) 86 % of control and 95 % of control | [1] 90 % of control and 88 % of control | [2] 89 % of control | dose: 200.0 mg/kg/injection, schedule: Q01DX001 (ip), vehicle: carboxymethylcellulose (CMC) 93 % of control and 101 % of control | [3] 93 % of control and 88 % of control | dose: 200.0 mg/kg/injection, schedule: Q04DX003 (ip), vehicle: saline with Tween-80 87 % of control | dose: 400.0 mg/kg/injection, schedule: Q01DX001 (ip), vehicle: carboxymethylcellulose (CMC) 88 % of control and 106 % of control | [4] 101 % of control and 95 % of control and 102 % of control | dose: 320.0 micrograms/kg/injection, schedule: Q01DX009 (ip), vehicle: saline 96 % of control | dose: 480.0 micrograms/kg/injection, schedule: Q01DX009 (ip), vehicle: saline 102 % of control | dose: 730.0 micrograms/kg/injection, schedule: Q01DX009 (ip), vehicle: saline 106 % of control | dose: 1100.0 micrograms/kg/injection, schedule: Q01DX009 (ip), vehicle: saline 107 % of control

COc1ccccc1C1CCCCCCC1OS(=O)(=O)c1ccc(C)cc1 (configuration not stated)
inactive: dose: 18.75 mg/kg/injection, schedule: Q01DX009 (ip), vehicle: saline 97 % of control | dose: 37.5 mg/kg/injection, schedule: Q01DX009 (ip), vehicle: saline 95 % of control | dose: 75.0 mg/kg/injection, schedule: Q01DX001 (ip), vehicle: acetone 89 % of control | dose: 75.0 mg/kg/injection, schedule: Q01DX001 (ip), vehicle: saline 90 % of control | dose: 75.0 mg/kg/injection, schedule: Q01DX009 (ip), vehicle: saline 90 % of control | dose: 75.0 mg/kg/injection, schedule: Q04DX003 (ip), vehicle: saline 88 % of control | dose: 112.0 mg/kg/injection, schedule: Q01DX009 (ip), vehicle: saline 103 % of control | dose: 150.0 mg/kg/injection, schedule: Q01DX001 (ip), vehicle: saline 93 % of control | dose: 150.0 mg/kg/injection, schedule: Q04DX003 (ip), vehicle: saline 92 % of control | dose: 170.0 mg/kg/injection, schedule: Q01DX009 (ip), vehicle: saline 96 % of control | dose: 255.0 mg/kg/injection, schedule: Q01DX009 (ip), vehicle: saline 100 % of control | dose: 300.0 mg/kg/injection, schedule: Q01DX001 (ip), vehicle: acetone 89 % of control | dose: 300.0 mg/kg/injection, schedule: Q01DX001 (ip), vehicle: saline 92 % of control

CCOC(=O)NNC(N)=S
inactive: dose: 100.0 mg/kg/injection, schedule: Q01DX009 (ip), vehicle: Klucel (hydroxypropylcellulose) (HPC) 102 % of control | [2] 103 % of control | dose: 200.0 mg/kg/injection, schedule: Q01DX009 (ip), vehicle: Klucel (hydroxypropylcellulose) (HPC) 97 % of control | [5] 94 % of control | dose: 400.0 mg/kg/injection, schedule: Q01DX009 (ip), vehicle: Klucel (hydroxypropylcellulose) (HPC) 98 % of control | [6] 100 % of control

Cc1ccc(NCc2ccccc2O)c(C)c1
inactive: dose: 100.0 mg/kg/injection, schedule: Q04DX003 (ip), vehicle: gum acacia 94 % of control | dose: 200.0 mg/kg/injection, schedule: Q04DX003 (ip), vehicle: gum acacia 101 % of control | dose: 400.0 mg/kg/injection, schedule: Q04DX003 (ip), vehicle: gum acacia 99 % of control

O=C1NC(=O)C(=O)C(=O)N1
inactive: dose: 50.0 mg/kg/injection, schedule: Q01DX009 (ip), vehicle: saline 94 % of control | dose: 50.0 mg/kg/injection, schedule: Q04DX003 (ip), vehicle: saline 93 % of control | [1] 94 % of control | dose: 100.0 mg/kg/injection, schedule: Q01DX009 (ip), vehicle: saline 97 % of control | [7] 97 % of control | [3] 108 % of control | dose: 200.0 mg/kg/injection, schedule: Q01DX009 (ip), vehicle: saline 103 % of control | [8] 97 % of control

O=C1C(O)C23CC=CCC12CC=CC3 (configuration not stated)
inactive: [1] 116 % of control | [3] 105 % of control | [4] 100 % of control

c1cc(-c2ccc(C3=NCCN3)cc2)ccc1C1=NCCN1
inactive: dose: 15.0 mg/kg/injection, schedule: Q01DX Z (ip), vehicle: saline 104 % of control | dose: 30.0 mg/kg/injection, schedule: Q01DX Z (ip), vehicle: saline 104 % of control | dose: 60.0 mg/kg/injection, schedule: Q01DX Z (ip), vehicle: saline 87 % of control

Nc1cc2ccc3ccccc3c2c2ccccc12
inactive: dose: 100.0 mg/kg/injection, schedule: Q01DX001 (ip), vehicle: Klucel (hydroxypropylcellulose) (HPC) 110 % of control | dose: 130.0 mg/kg/injection, schedule: Q01DX001 (ip), vehicle: Klucel (hydroxypropylcellulose) (HPC) 94 % of control

O=[N+]([O-])c1cccc(S(=O)(=O)SC(Cl)(Cl)Cl)c1
inactive: dose: 25.0 mg/kg/injection, schedule: Q04DX003 (ip), vehicle: saline 96 % of control

CC(Br)C(Br)(C(=O)O)c1ccccc1 (configuration not stated)
inactive: dose: 100.0 mg/kg/injection, schedule: Q04DX003 (ip), vehicle: other 91 % of control | dose: 200.0 mg/kg/injection, schedule: Q04DX003 (ip), vehicle: other 95 % of control | dose: 400.0 mg/kg/injection, schedule: Q04DX003 (ip), vehicle: other 96 % of control

COc1ccc(OC(=O)OCc2ccccc2)cc1
inactive: [2] 101 % of control | [5] 101 % of control | [6] 109 % of control

C=CCNc1n[nH]c(=S)s1
inactive: dose: 100.0 mg/kg/injection, schedule: Q01DX009 (ip), vehicle: saline with Tween-80 101 % of control | dose: 200.0 mg/kg/injection, schedule: Q01DX009 (ip), vehicle: saline with Tween-80 95 % of control | dose: 400.0 mg/kg/injection, schedule: Q01DX009 (ip), vehicle: saline with Tween-80 98 % of control

CCOc1ccccc1N1C(=O)CSC1=S
inactive: dose: 200.0 mg/kg/injection, schedule: Q04DX002 (ip), vehicle: other 117 % of control | dose: 400.0 mg/kg/injection, schedule: Q04DX002 (ip), vehicle: other 95 % of control

CC1(C)CC(N)CC(C)(C)N1O
inactive: [7] 100 % of control | [8] 97 % of control
